# Biological target: PRKG1beta (Homo sapiens (Human), UniProt Q13976)
# Assay: KinaseProfiler off-target kinase profiling
# Format: biochemical
# Details: 10 μM, ATP near Km
# Outline: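 ATP was held near each kinase's Km while compound was present at 10 μM. Runs were done twice, and values are the average percent of control.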
# Sequence of PRKG1beta (Q13976 other isoform, or with tags, fused parts or gaps): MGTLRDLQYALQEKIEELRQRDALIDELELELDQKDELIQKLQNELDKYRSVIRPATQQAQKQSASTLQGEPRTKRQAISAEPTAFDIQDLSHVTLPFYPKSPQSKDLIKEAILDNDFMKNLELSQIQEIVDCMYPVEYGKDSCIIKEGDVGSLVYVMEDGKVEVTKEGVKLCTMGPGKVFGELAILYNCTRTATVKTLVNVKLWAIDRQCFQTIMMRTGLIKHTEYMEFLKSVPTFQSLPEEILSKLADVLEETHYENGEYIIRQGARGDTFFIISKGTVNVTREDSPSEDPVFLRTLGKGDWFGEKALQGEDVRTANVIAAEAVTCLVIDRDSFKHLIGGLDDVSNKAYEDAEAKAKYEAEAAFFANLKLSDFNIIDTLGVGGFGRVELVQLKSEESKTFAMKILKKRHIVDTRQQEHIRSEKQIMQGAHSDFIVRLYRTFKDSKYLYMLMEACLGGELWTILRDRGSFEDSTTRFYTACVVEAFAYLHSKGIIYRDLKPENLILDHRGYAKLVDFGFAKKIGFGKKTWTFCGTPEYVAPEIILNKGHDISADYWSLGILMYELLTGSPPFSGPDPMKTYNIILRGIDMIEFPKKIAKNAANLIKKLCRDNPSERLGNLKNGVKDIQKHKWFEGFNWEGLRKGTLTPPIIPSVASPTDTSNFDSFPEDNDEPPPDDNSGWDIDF
row,Compound,Avg. POC
1,"Cc1c(-c2cnn(C)c2)nn(-c2ccccc2)c1NC(=O)N[C@H]1CCCc2ccccc21 [Example 2, (S)-1-(1′,4-dimethyl-1-phenyl-1H,1′H-3,4′-bipyrazol-5-yl)-3-(1,2,3,4-tetrahydronaphthalen-1-yl)urea]",122 POC
2,"Cc1c(-c2cnn(C)c2)nn(-c2ccccc2)c1NC(=O)NC1CCOc2cc(F)ccc21 (stereo not shown) [Example 12, 1-(1′,4-dimethyl-1-phenyl-1H,1′H-[3,4′-bipyrazol]-5-yl)-3-(7-fluorochroman-4-yl)urea]",95.5 POC
3,"Cc1c(-c2ccc(=O)n(C)c2)nn(-c2ccccc2)c1NC(=O)NC1CN(CC(F)(F)F)Cc2ccccc21 (stereo not shown) [Example 26, 1-(4-methyl-3-(1-methyl-6-oxo-1,6-dihydropyridin-3-yl)-1-phenyl-1H-pyrazol-5-yl)-3-(2-(2,2,2-trifluoroethyl)-1,2,3,4-tetrahydroisoquinolin-4-yl)urea]",111.5 POC
4,"COCc1ccc2c(c1)C(NC(=O)Nc1c(C)c(-c3cnn(C)c3)nn1-c1ccccc1)COC2 (stereo not shown) [Example 32, 1-(1′,4-dimethyl-1-phenyl-1H,1′H-[3,4′-bipyrazol]-5-yl)-3-(6-(methoxymethyl)isochroman-4-yl)urea]",80.5 POC
